4 compounds from patent US10300064B2, “Organic compounds” (INTRA-CELLULAR THERAPIES, INC., priority 2014, dated 2019) can be followed below.

One data set has as its target T1, r-hPDE2A (Homo sapiens, UniProt O00408).
T1 construct: host or cells: HEK293 cells, transient transfection; soluble cytosolic fraction used
The data set can be described thus: Measurement of PDE2 inhibition in vitro (IMAP fluorescence polarization, FL-cAMP substrate). It is filed as biochemical. The conditions noted are these: 1 μM cGMP. On the procedure:
Measurement of PDE2 Inhibition In Vitro
r-hPDE2A (Accession No. NM_002599, Homo sapiens phosphodiesterase 2A, cGMP-stimulated, transcript variant 1) A mammalian expression cloning vector with recombinant cDNA copy of the gene is purchased from Origene. Protein is expressed via transient transfection of HEK293 cells. The cells are harvested at 48 hours after transfection, washed once with TBS buffer (50 mM Tris-HCl, pH 7.5, 150 mM NaCl), then lysed by sonication in cold homogenization buffer (50 mM Tris-HCl, pH 7.5, 5 mM MgCl2, lx protease inhibitor cocktail). The homogenate is centrifuged for […] at 15,000 g at 4° C. to obtain the soluble cytosolic fraction. The protein concentration of the cytosol is determined using BCA Protein Assay Kit (Pierce) with bovine serum albumin as a standard.
PDE2A is assayed with FL-cAMP as substrate. An enzyme titration is first performed to determine the working concentration of PDE. The concentration of the enzyme giving activity of 100 ΔmP in the absence of inhibitor is deemed an appropriate working concentration for PDE.
PDE enzyme is diluted in a standard reaction buffer (10 mM Tris-HCl pH 7.2, 10 mM MgCl2, 0.1% BSA, 0.05% NaN3) according to the titration curve. For PDE2 assay the reaction buffer is supplemented with 1 μM cGMP to fully activate the enzyme. 99 μl of diluted enzyme solution is added into each well in a flat bottom 96-well polystyrene plate and then 1 μl of test compound dissolved in 100% DMSO is added. The compounds are mixed and pre-incubated with the enzyme for 10 min at room temperature.
The FL-cNMP conversion reaction is initiated by addition of substrate (45 nM final). Enzyme and inhibitor mix (16 μl) and substrate solution (4 μl of 0.225 μM) are combined in a 384-well microtiter plate. The reaction is incubated in the dark at room temperature for 15 min. The reaction is halted by addition of 60 μl of binding reagent (1:400 dilution of IMAP beads in binding buffer supplemented with 1:1800 dilution of antifoam) to each well of the 384-well plate. The plate is incubated at room temperature for 1 hour to allow IMAP binding to proceed to completion, and then placed in an Envision multimode microplate reader (PerkinElmer, Shelton, Conn.) to measure the fluorescence polarization (Δmp).
A decrease in cAMP concentration, measured as decreased Amp, is indicative of inhibition of PDE activity. […] IC50 values are estimated using nonlinear regression software, fitting a four-parameter one-site dose-response model (XLFit; IDBS, Cambridge, Mass.). […]
The total fluorescence intensity of each sample well is measured to calculate the average and standard deviation. If the total fluorescence intensity of any sample well is not within the range of Average±3SD, the mp value of that particular well is discarded. […]
(In fluorescence polarisation assays a small probe gives low polarisation when free and higher when bound to something large.)

Data set [1] in a line: Pharmacokinetic study in mice (plasma and brain availability). The data set is classed as in vivo. As to conditions: single oral dose 10 mg/kg PO, 0.25-4h, FIG. 1. The protocol:
FIG. 1 illustrats the plasma and brain levels in mice dosed with 10 mg/kg P.O. of the compound of Example 1 over time.
Mice are given a single oral dose of the compound to be tested (10 mg/kg, PO) and plasma and brain availability are measured (0.25-4h) using HPLC and LC-MS using methods analogous to those described in Zhao et al., J. Chromatogr. B. Analyt. Technol. Biomed. Life Sci. (2005) 819(1):73-80 and Appels, N. M., et al., Rapid Commun. Mass Spec. 2005. 19(15): p. 2187-92.

The next data set deals with Wistar rats. In words: Object recognition task, memory performance of Wistar rats. The data set is classed as in vivo, rat. The conditions noted are these: male Wistar rats, oral, 2 h before learning. On the procedure: The Effects of Treatment with PDE2 Inhibitors on Memory Performance of Wistar Rats in the Object Recognition Task
The memory-enhancing effects of the compound of Example 1 are tested in an animal model of cognition, the object recognition task. See, Ennaceur, A., Delacour, J., 1988. A new one-trial test for neurobiological studies of memory in rats. 1: Behavioral data. Behav. Brain Res. 31, 47-59. Rats remember which object they have explored in a previous trial when they are tested one hour later. However, when a 24 h inter-trial interval is used, they are not able to remember which object was presented to them in the first trial. It is tested whether the compound of Example 1 would attenuate this time-induced object memory deficit, when given 2 h before the first trial. The compounds are given to 2-3-months-old male Wistar rats.
The compound of Example 1 is injected orally (2 ml/kg) 2 h before learning, at doses of 0, 0.3, 1, 3 and 10 mg/kg.

The target of a further data set is PDE10A (Homo sapiens, UniProt Q9Y233). The data set can be described thus: Selectivity for PDE2 over PDE10A. The data set is classed as biochemical. The protocol: (§1) Using the IMAP procedure described or similarly described above, we screened a proprietary PDE-focused compound library to identify novel compounds with nanomolar PDE2 inhibitory activities. […] The compounds are moreover selective for PDE2; the compound of Example 4 is tested and shown to be selective for PDE2 over PDE1, PDE3, PDE4D, PDE5, PDE6, PDE7B, PDE8A, PDE9A, PDE10A and PDE11A by greater than 20-fold.
PDE10A, sequence (Q9Y233 whole entry, species assumed): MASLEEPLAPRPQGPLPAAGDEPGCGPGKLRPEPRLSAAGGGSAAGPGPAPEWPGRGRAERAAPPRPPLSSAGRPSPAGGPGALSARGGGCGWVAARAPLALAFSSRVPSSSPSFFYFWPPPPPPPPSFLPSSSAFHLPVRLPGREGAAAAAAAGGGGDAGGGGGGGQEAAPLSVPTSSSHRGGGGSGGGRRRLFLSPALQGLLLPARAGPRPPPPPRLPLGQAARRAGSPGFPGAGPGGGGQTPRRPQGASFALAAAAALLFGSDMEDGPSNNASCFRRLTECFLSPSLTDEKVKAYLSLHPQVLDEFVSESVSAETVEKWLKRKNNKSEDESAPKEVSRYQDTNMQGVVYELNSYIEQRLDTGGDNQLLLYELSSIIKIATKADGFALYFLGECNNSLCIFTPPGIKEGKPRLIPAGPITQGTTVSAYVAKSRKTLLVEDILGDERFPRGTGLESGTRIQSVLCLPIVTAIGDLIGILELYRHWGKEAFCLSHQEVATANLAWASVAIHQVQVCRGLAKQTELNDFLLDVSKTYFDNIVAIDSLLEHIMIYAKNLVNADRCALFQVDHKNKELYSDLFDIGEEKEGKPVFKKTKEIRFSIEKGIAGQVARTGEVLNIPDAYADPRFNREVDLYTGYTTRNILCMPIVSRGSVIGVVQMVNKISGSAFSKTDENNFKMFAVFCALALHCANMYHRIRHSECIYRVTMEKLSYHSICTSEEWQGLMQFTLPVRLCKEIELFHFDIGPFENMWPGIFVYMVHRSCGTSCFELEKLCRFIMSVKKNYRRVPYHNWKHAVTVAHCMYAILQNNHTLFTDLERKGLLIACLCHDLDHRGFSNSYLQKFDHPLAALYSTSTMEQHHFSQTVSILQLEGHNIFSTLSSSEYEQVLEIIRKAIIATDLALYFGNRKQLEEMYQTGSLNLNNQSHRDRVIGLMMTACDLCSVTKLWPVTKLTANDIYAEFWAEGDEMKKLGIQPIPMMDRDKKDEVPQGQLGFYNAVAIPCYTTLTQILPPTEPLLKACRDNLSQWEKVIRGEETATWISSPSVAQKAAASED

Another data set concerns the target PDE7B (Homo sapiens, UniProt Q9NP56). The data set can be described thus: Selectivity for PDE2 over PDE7B. It is filed as biochemical. The protocol: as §1
The test system of another data set is PDE6. In words: Selectivity for PDE2 over PDE6. It is filed as biochemical. The protocol:
as §1

For a further data set, the target named is PDE11A (Homo sapiens, UniProt Q9HCR9). In words: Selectivity for PDE2 over PDE11A. It is filed as biochemical. On the procedure: as §1
PDE11A, sequence (Q9HCR9 whole entry, species assumed): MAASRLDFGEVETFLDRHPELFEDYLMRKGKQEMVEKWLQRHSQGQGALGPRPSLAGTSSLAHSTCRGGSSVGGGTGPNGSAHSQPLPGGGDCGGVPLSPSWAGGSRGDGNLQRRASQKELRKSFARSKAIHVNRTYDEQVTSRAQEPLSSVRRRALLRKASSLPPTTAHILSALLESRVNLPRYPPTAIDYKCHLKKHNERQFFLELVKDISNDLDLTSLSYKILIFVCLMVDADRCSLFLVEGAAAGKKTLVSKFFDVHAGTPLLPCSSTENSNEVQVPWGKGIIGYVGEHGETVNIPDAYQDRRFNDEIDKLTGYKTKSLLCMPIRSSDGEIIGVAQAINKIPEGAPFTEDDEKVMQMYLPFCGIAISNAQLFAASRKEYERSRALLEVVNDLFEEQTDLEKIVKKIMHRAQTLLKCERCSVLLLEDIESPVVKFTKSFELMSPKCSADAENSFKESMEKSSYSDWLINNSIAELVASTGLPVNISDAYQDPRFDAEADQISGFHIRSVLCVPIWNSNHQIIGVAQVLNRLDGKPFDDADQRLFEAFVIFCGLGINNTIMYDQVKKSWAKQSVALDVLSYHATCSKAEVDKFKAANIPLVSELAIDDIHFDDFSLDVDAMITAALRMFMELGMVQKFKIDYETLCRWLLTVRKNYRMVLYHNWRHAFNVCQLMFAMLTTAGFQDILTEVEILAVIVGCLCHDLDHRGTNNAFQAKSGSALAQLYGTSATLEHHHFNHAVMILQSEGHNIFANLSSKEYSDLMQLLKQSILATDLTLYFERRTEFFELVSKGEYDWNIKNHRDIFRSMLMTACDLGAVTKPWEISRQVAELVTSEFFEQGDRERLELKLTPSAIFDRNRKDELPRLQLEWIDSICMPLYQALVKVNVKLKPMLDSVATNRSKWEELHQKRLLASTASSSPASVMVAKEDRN
Another data set deals with PDE1. The data set can be described thus: Selectivity for PDE2 over PDE1. The data set is classed as biochemical. On the procedure: as §1
Another data set deals with PDE3. The data set can be described thus: Selectivity for PDE2 over PDE3. It is filed as biochemical. The protocol: as §1
A further data set concerns the target PDE9A (Homo sapiens, UniProt O76083). The data set can be described thus: Selectivity for PDE2 over PDE9A. It is filed as biochemical. On the procedure:
as §1

In a further data set the target is PDE8A (Homo sapiens, UniProt O60658). The data set can be described thus: Selectivity for PDE2 over PDE8A. It is filed as biochemical. On the procedure:
as §1

For the next data set, the target named is PDE5 (Homo sapiens, UniProt O76074). The data set can be described thus: Selectivity for PDE2 over PDE5. It is filed as biochemical. On the procedure: as §1
For another data set, the target named is PDE4D (Homo sapiens, UniProt Q08499). In words: Selectivity for PDE2 over PDE4D. The data set is classed as biochemical. On the procedure:
as §1

Broadly, the IC50 is the concentration at which inhibition is half-maximal.

T1 sequence (O00408 whole entry): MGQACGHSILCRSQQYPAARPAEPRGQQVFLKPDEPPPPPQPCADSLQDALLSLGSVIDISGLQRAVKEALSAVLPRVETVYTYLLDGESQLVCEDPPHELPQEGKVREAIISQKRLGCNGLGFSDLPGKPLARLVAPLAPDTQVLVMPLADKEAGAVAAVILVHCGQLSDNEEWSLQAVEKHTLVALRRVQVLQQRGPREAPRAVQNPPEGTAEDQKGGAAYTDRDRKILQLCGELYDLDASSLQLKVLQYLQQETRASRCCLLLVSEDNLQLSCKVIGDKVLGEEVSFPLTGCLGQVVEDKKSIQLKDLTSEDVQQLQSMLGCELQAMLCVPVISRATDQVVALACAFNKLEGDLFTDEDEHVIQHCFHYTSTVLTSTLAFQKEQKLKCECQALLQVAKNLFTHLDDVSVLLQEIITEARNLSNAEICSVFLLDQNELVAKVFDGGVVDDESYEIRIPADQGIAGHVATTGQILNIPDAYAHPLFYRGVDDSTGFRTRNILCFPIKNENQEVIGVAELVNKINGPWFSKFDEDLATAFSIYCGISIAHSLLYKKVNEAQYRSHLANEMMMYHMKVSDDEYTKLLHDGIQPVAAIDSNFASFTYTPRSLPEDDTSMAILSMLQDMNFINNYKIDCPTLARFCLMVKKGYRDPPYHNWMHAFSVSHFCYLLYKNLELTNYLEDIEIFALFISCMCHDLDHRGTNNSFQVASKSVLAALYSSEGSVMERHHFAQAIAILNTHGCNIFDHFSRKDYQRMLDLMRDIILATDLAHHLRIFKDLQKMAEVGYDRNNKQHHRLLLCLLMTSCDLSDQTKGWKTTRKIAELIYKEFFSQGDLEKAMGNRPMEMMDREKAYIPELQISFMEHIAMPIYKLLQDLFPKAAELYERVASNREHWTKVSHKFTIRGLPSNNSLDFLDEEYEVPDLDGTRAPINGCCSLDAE
PDE4D, sequence (Q08499 whole entry, species assumed): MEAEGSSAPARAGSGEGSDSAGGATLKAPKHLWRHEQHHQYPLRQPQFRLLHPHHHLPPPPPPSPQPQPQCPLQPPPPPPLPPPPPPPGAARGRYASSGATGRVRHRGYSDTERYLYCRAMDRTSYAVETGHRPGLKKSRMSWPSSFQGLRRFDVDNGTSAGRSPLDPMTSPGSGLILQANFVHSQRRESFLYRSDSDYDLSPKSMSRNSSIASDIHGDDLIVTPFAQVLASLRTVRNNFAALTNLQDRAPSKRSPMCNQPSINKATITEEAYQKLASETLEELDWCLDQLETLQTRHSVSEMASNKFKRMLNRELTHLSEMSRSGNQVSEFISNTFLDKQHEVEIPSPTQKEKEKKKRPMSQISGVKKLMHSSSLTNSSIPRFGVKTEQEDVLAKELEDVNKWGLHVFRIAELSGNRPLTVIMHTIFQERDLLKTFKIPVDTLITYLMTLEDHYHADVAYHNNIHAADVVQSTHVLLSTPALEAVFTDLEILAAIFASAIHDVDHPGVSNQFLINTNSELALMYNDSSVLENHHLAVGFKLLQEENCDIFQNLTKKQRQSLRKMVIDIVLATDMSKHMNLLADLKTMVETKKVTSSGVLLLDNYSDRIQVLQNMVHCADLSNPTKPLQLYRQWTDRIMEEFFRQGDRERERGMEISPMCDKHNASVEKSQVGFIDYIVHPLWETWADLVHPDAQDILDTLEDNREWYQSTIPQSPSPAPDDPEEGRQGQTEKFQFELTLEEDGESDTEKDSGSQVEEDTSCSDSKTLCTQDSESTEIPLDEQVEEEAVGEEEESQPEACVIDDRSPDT
PDE7B, sequence (Q9NP56 whole entry, species assumed): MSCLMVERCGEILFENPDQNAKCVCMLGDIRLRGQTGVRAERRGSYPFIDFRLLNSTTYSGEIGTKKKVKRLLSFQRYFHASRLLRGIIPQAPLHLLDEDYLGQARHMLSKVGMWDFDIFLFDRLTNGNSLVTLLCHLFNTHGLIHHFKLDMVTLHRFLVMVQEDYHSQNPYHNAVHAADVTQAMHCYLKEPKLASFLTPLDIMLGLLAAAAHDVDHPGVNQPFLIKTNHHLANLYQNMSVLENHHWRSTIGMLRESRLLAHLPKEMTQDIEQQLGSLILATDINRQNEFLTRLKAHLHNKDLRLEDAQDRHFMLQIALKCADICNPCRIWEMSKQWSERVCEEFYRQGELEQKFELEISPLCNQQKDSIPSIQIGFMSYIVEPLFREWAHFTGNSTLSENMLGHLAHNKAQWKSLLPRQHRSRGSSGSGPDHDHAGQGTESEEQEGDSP
PDE8A, sequence (O60658 whole entry, species assumed): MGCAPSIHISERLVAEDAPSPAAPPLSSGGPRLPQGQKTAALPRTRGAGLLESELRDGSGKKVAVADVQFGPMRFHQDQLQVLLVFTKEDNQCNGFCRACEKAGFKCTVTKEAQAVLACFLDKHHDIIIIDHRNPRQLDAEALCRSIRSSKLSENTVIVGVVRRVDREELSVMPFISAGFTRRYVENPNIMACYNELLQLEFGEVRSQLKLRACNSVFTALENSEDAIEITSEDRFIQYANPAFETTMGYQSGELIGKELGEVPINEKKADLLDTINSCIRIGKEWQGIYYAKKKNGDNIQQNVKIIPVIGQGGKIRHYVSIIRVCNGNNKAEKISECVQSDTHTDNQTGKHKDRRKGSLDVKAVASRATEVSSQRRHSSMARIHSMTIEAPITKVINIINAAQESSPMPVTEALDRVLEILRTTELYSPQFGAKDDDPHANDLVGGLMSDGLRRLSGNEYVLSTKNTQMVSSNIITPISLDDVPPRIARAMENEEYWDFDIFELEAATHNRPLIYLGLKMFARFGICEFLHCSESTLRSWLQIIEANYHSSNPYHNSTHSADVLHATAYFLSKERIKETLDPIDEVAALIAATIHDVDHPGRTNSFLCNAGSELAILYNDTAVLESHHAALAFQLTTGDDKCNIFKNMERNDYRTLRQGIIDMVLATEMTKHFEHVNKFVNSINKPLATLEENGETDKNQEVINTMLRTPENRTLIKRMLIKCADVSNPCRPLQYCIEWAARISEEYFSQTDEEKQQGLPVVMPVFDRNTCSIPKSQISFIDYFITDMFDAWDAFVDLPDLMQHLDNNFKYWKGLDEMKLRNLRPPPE

On to `Cc1nn(-c2cnn(C)c2-c2ccc(C(F)(F)F)cc2)c2c(N3CCC3)ncnc12` [Example 1, 7-(Azetidin-1-yl)-3-methyl-1-(1-methyl-5-(4-(trifluoromethyl)phenyl)-1H-pyrazol-4-yl)-1H-pyrazolo[4,3-d]pyrimidine], for which the IC50 against r-hPDE2A stood at 23.1 nM. For the same compound, in data set [1], the “brain access (plasma and brain availability)” value is “good brain access”. The “memory improvement (object memory, 24 h inter-trial interval)” value in the data set on Wistar rats (0.3 mg/kg) and in the data set on Wistar rats (3.0 mg/kg) was “intermediate memory improvement” throughout. For the same compound, the “time-dependent forgetting (object memory, 24 h inter-trial interval)” value in the data set on Wistar rats (1.0 mg/kg) is “completely prevent the time-dependent forgetting”.

On r-hPDE2A, `COc1ccc(-c2c(-n3nc(C)c4ncnc(N5CCC5)c43)cnn2C)c(C)c1` [Example 2, 7-(Azetidin-1-yl)-1-(5-(4-methoxy-2-methylphenyl)-1-methyl-1H-pyrazol-4-yl)-3-methyl-1H-pyrazolo[4,3-d]pyrimidine] registered a half-maximal inhibitory concentration (IC50) of 92 nM.

`Cc1nn(-c2cnn(C)c2-c2ccc(C3CC3)cc2)c2c(N3CCC3)ncnc12` [Example 3, 7-(Azetidin-1-yl)-1-(5-(4-cyclopropylphenyl)-1-methyl-1H-pyrazol-4-yl)-3-methyl-1H-pyrazolo[4,3-d]pyrimidine] came in with an IC50 at r-hPDE2A of 9.5 nM.

With `CCc1ccc(-c2c(-n3nc(C)c4ncnc(N5CCC5)c43)cnn2C)cc1` [Example 4, 7-(Azetidin-1-yl)-1-(5-(4-ethylphenyl)-1-methyl-1H-pyrazol-4-yl)-3-methyl-1H-pyrazolo[4,3-d]pyrimidine], the “selectivity for PDE2 over PDE10A” value on PDE10A is reported as “greater than 20 fold”. Moreover, at PDE7B, the “selectivity for PDE2 over PDE7B” value is on record as “greater than 20 fold”. Moreover, the “selectivity for PDE2 over PDE6” value with PDE6 was “greater than 20 fold”. Also, the IC50 on r-hPDE2A is 18.5 nM. Also, at PDE11A, the “selectivity for PDE2 over PDE11A” value was “greater than 20 fold”. Besides, the “selectivity for PDE2 over PDE1” value in the data set on PDE1 was “greater than 20 fold”. Further, in the data set with PDE3, the “selectivity for PDE2 over PDE3” value is “greater than 20 fold”. For the same compound, the “selectivity for PDE2 over PDE9A” value at PDE9A was “greater than 20 fold”. Further, on PDE8A, the “selectivity for PDE2 over PDE8A” value is listed as “greater than 20 fold”. The “selectivity for PDE2 over PDE5” value at PDE5 is listed as “greater than 20 fold”. In addition, at PDE4D, the “selectivity for PDE2 over PDE4D” value is on record as “greater than 20 fold”.
